# Data as given in patent US7557134B2, “N-(heteroaryl)-1H-indole-2-carboxamide derivatives and their use as vanilloid TRPV1 receptor ligands” (Sanofi-Aventis, priority 2005, dated 2009).
# Biological target: T1, TRPV1 receptor (Rattus norvegicus, UniProt O35433)
# T1 construct: The neurons of the DRG naturally express the TRPV1 receptor; endogenous in cells; host or cells: primary culture of newborn rat dorsal root ganglion neurons
# Experiment: Test of inhibition of the current induced with capsaicin on rat DRGs (whole-cell patch-clamp)
# Format: cell-based
# Conditions: DRG neuron; compound 1 nM; capsaicin response 300 nM; rat DRG neurons
# Protocol: Test of Inhibition of the Current Induced with Capsaicin on rat DRGs
# • Primary culture of rat dorsal root ganglion (DRG) cells:
# The neurons of the DRG naturally express the TRPV1 receptor.
# The primary cultures of newborn rat DRGs are prepared using 1-day-old rats. Briefly, after dissection, the ganglions are trypsinized and the cells dissociated by mechanical trituration. The cells are resuspended in an Eagle basal culture medium containing 10% fetal calf serum, 25 mM KCl, 2 mM glutamine, 100 μg/ml gentamicin and 50 ng/ml of NGF, and then deposited on glass slides coated with laminin (0.25×10^6 cells per slide), which are then placed in Corning 12-well dishes. The cells are incubated at 37° C. in a humidified atmosphere containing 5% CO2 and 95% air. Cytosine β-D-arabinoside (1 μM) is added 48 hours after culturing, to prevent the growth of non-neuronal cells. The slides are transferred into experimental chambers for the patch-clamp studies after 7-10 days of culturing.
# The measuring chambers (volume 800 μl) containing the cell preparation are placed on the platform of an inverted microscope (Olympus IMT2) equipped with Hoffman optics (Modulation Contrast, New York) and observed at a magnification of 400×. The chambers are continuously gravity-influxed (2.5 ml/min) using a solution distributor accepting 8 inlets and whose sole outlet, consisting of a polyethylene tube (aperture 500 μm), is placed less than 3 mm from the cell under study. The “whole cell” configuration of the patch-clamp technique was used. […] The overall currents (membrane potential set at […]) are recorded with an Axopatch 1 D amplifier (Axon Instruments, Foster city, Calif.), connected to a PC running the Pclamp8 software (Axon Instrument). The current plots are recorded on paper and simultaneously digitized (sampling frequency 15 to 25 Hz) and acquired on the hard drive of the PC.
# The application of a 300 nM capsaicin solution induces on the DRG cells (voltage set at −70 mV) an entering cationic current. […] The results are expressed as a percentage of inhibition of the control capsaicin response.
# T1 sequence (O35433 whole entry): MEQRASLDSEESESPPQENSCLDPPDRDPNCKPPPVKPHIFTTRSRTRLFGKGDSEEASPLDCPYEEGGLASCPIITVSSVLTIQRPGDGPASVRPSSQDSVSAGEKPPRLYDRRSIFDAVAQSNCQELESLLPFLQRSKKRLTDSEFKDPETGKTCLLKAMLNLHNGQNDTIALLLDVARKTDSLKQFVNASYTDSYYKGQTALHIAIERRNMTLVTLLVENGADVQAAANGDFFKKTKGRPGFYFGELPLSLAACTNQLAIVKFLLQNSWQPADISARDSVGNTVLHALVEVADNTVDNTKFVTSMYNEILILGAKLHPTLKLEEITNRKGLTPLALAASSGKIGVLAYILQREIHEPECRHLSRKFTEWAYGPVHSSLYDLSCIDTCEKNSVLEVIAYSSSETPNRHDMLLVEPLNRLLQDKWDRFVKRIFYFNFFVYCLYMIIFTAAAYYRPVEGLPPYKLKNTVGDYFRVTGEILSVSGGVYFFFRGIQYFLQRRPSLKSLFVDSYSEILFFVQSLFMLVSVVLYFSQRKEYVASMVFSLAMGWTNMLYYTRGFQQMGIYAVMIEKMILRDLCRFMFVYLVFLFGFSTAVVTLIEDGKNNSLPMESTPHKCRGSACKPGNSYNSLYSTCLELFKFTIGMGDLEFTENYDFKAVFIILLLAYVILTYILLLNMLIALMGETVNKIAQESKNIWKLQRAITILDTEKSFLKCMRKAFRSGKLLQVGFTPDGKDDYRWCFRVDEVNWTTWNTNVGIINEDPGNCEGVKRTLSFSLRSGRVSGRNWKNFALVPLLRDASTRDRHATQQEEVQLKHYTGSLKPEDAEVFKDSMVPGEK
row,Structure (SMILES),inhibition at 0.001 µM [%]
1,"Cn1ncc2cc(NC(=O)c3cc4cc(C(F)(F)F)ccc4n3Cc3cccc(F)c3)ccc21 [Compound 19, N-(1-methyl-1H-indazol-5-yl)-5-trifluoromethyl-1-[(3-fluorophenyl)methyl]-1H-indole-2-carboxamide]",48

# Same assay, conditions: DRG neuron; compound 10 nM; capsaicin response 300 nM; rat DRG neurons
row,Structure (SMILES),inhibition at 0.01 µM [%]
1,"O=C(Nc1ccc2c(c1)NCCC2)c1cc2cc(F)ccc2n1Cc1cccc(F)c1 [Compound 14, N-(1,2,3,4-tetrahydroquinol-7-yl)-5-fluoro-1-[(3-fluorophenyl)methyl]-1H-indole-2-carboxamide]",38

# Same assay, conditions: compound 1 nM; capsaicin response 300 nM; rat DRG neurons
row,Structure (SMILES),% inhibition in DRG patch
1,"O=C1CCc2ccc(NC(=O)c3cc4cc(F)ccc4n3Cc3cccc(F)c3)cc2N1 [Compound 20, N-(1H-2-oxo-3,4-dihydroquinol-7-yl)-5-fluoro-1-[(3-fluorophenyl)methyl]-1H-indole-2-carboxamide]",45% (1 nM)

# Biological target: T2, TRPV1 receptors (Mus musculus, UniProt Q704Y3)
# T2 construct: from tissue; host or cells: living mouse, cornea (capsaicin ocular instillation)
# Experiment: Test of mouse corneal irritation (capsaicin ocular instillation)
# Format: in vivo
# Conditions: 1 mg/kg po, pretreatment time t = 1 h, n = 8, 2 μl of 160 μM capsaicin
# Protocol: Test of Mouse Corneal Irritation
# The irritant nature of capsaicin is readily assessed on the cornea since this organ is one of the organs most densely innervated with C fibres. In this context, from preliminary experiments, the application of a very small amount of capsaicin (2 μl at a concentration of 160 μM) to the surface of the cornea of an animal leads to a certain number of stereotypic behavioral traits associated with irritation, which are easy to detect. Among these, the following are noted: blinking of the eye, rubbing of the instilled eye with the ipsilateral front paw, rubbing of the face with both front paws, scratching of the ipsilateral face with the hind paw. […] This aspect is moreover also normal. […]
# In practice, the test product is administered orally and, with a delay (pretreatment time: t) that depends on the pharmacokinetic data, the animal receives an ocular instillation of 2 μl of a 160 μM capsaicin solution prepared as indicated above. During a 2-minute observation following the instillation, the number of times the instilled eye is rubbed with the ipsilateral front paw is recorded.
# For a given animal, the percentage of protection is calculated as follows: P=100−((number of scratching actions observed/mean number of scratching actions for the group treated with the solvent)×100) […]
# T2 sequence (Q704Y3 whole entry): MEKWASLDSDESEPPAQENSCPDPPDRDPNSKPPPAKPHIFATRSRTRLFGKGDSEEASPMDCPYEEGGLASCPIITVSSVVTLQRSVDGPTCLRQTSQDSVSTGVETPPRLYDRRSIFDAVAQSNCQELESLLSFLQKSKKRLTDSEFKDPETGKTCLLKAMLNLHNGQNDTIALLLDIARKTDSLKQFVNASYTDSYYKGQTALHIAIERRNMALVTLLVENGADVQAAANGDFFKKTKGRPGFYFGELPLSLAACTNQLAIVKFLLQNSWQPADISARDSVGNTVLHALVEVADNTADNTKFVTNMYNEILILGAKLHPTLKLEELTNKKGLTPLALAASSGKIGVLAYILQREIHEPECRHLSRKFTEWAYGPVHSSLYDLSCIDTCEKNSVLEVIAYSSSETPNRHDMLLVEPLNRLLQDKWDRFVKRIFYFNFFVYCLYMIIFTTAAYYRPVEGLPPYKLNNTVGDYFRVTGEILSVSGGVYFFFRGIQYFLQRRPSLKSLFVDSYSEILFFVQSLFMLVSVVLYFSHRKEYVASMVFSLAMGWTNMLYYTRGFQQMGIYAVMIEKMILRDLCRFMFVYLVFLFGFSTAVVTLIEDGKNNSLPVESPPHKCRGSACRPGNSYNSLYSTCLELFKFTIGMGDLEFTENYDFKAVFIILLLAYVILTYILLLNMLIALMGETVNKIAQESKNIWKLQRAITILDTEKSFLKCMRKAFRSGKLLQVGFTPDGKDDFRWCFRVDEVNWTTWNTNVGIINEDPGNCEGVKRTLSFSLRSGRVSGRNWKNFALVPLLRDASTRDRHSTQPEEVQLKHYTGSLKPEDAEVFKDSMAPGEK
row,Structure (SMILES),% P (percentage of protection)
1,"O=C(Nc1ccc2c(c1)NCCC2)c1cc2cc(F)ccc2n1Cc1cccc(F)c1 [Compound 14, N-(1,2,3,4-tetrahydroquinol-7-yl)-5-fluoro-1-[(3-fluorophenyl)methyl]-1H-indole-2-carboxamide]",46% - (1 h)
2,"O=C1CCc2ccc(NC(=O)c3cc4cc(F)ccc4n3Cc3cccc(F)c3)cc2N1 [Compound 20, N-(1H-2-oxo-3,4-dihydroquinol-7-yl)-5-fluoro-1-[(3-fluorophenyl)methyl]-1H-indole-2-carboxamide]",26% - (1 h)

# Test system: not given
# Experiment: not given
# Conditions: not given
row,Structure (SMILES),melting point [°C]
1,O=C(Nc1ccc2ncsc2c1)c1cc2cc(F)ccc2n1Cc1cccc(F)c1,167 to 168
2,Cn1ncc2cc(NC(=O)c3cc4cc(F)ccc4n3Cc3cccc(F)c3)ccc21,210 to 211
3,O=C(Nc1ccc2[nH]nnc2c1)c1cc2cc(C(F)(F)F)ccc2n1Cc1cccc(F)c1,167 to 174
4,O=C(Nc1ccc2[nH]nnc2c1)c1cc2cc(F)ccc2n1Cc1cccc(F)c1,220 to 221
5,"O=C1Cc2cc(NC(=O)c3cc4cc(C(F)(F)F)ccc4n3Cc3cccc(F)c3)ccc2N1 [Compound 25, N-(2-oxoindolin-5-yl)-5-trifluoromethyl-1-[(3-fluorophenyl)methyl]-1H-indole-2-carboxamide]",244 to 246
6,Cn1cnc2ccc(NC(=O)c3cc4cc(F)ccc4n3Cc3cccc(F)c3)cc21,215 to 216
7,"O=C(Nc1cccc2c1NCCC2)c1cc2ccccc2n1-c1cccc(C(F)(F)F)c1 [Compound 16, N-(1,2,3,4-tetrahydroquinol-8-yl)-1-[3-(trifluoromethyl)phenyl]-1H-indole-2-carboxamide]",93 to 95
8,"O=C1Cc2cc(NC(=O)c3cc4cc(F)ccc4n3Cc3cccc(F)c3)ccc2N1 [Compound 42, N-(2-oxoindolin-5-yl)-5-fluoro-1-[(3-fluorophenyl)methyl]-1H-indole-2-carboxamide]",249 to 250
9,O=C(Nc1cccc2cnccc12)c1cc2cc(F)ccc2n1Cc1cccc(F)c1,206 to 207
10,"CC1C(=O)NOc2cc(NC(=O)c3cc4ccccc4n3-c3cccc(C(F)(F)F)c3)ccc21 (stereo not drawn) [Compound 5, N-(4-methyl-3-oxo-2H-benzoxazin-7-yl)-1-[3-(trifluoromethyl)phenyl]-1H-indole-2-carboxamide]",198 to 200
11,"CS(=O)(=O)N1CCc2cc(NC(=O)c3cc4cc(C(F)(F)F)ccc4n3Cc3cccc(F)c3)ccc21 [Compound 31, N-(1-methylsulfonylindolin-5-yl)-5-trifluoromethyl-1-[(3-fluorophenyl)methyl]-1H-indole-2-carboxamide]",214 to 215
12,"CS(=O)(=O)N1CCc2cc(NC(=O)c3cc4cc(F)ccc4n3Cc3cccc(F)c3)ccc21 [Compound 44, N-(1-methylsulfonylindolin-5-yl)-5-fluoro-1-[(3-fluorophenyl)methyl]-1H-indole-2-carboxamide]",192 to 193
13,Cc1nc2cc(NC(=O)c3cc4cc(C(F)(F)F)ccc4n3Cc3cccc(F)c3)ccc2o1,182 to 183
14,"CN1CCCc2ccc(NC(=O)c3cc4ccccc4n3-c3cccc(C(F)(F)F)c3)cc21 [Compound 2, N-(1-methyl-1,2,3,4-tetrahydroquinol-7-yl)-1-[3-(trifluoromethyl)phenyl]-1H-indole-2-carboxamide]",92 to 95
15,"O=C(Nc1ccc2oc(-c3ccccc3)nc2c1)c1cc2cc(C(F)(F)F)ccc2n1Cc1cccc(F)c1 [Compound 47, N-(2-phenylbenzoxazol-5-yl)-5-trifluoromethyl-1-[(3-fluorophenyl)methyl]-1H-indole-2-carboxamide]",194 to 195
16,"O=C(Nc1ccc2ocnc2c1)c1cc2ccccc2n1-c1cccc(C(F)(F)F)c1 [Compound 17, N-(benzoxazol-5-yl)-1-[3-(trifluoromethyl)phenyl]-1H-indole-2-carboxamide]",222 to 224
